Active and inactive are the calls of the source. The rule behind the calls is not given here.

The target of the first data set is T1, Beta-secretase 1 (Homo sapiens, UniProt P56817). As to the kind of experiment: Inhibition of BACE1 (1 to 454 residues) (unknown origin) using APP harboring Swedish Lys-Met/Asn-Leu mutant-derived peptide as substrate by FRET assay.
T1 sequence (P56817 whole entry, the tested form may be a part): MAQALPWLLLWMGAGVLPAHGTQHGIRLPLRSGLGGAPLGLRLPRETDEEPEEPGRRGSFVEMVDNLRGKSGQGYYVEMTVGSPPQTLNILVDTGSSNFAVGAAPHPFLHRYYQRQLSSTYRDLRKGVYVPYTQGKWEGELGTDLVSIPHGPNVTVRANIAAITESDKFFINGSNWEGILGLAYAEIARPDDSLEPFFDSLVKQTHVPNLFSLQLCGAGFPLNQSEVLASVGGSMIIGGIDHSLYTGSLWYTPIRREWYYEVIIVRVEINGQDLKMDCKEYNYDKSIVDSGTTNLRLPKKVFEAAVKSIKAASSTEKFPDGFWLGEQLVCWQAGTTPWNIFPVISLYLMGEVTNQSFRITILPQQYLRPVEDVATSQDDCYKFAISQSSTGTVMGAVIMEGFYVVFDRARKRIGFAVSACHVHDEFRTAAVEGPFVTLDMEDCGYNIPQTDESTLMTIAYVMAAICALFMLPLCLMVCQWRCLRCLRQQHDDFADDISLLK
Conditions: not given
By IC50 is commonly meant the concentration needed to halve the response being measured. For the molecule `C[C@@]1(S(C)(=O)=O)CC[C@@](CF)(c2cc(NC(=O)c3cc4c(cn3)OC(F)(F)CO4)ccc2F)N=C1N`, it took 1.4 nM to reach half-maximal inhibition (IC50).
On the same count and under the same terms, with `CCc1cc([C@]2(c3ccc(F)c(-c4cccnc4C(F)F)c3)N=C(N)N(C)C2=O)cc(CC)n1` the figure was 10 nM; with `CC(C)S(=O)(=O)[C@]1(C)CC[C@@](CF)(c2cc(NC(=O)c3cc4c(cn3)OC(F)(F)O4)ccc2F)N=C1N`, 10 nM; with `C[C@@]1(S(C)(=O)=O)CC[C@@](CF)(c2cc(NC(=O)c3cc4c(cn3)OCO4)ccc2F)N=C1N`, 2.3 nM.
Take `COc1cc(C(=O)Nc2ccc(F)c([C@]3(CF)CC[C@@](C)(S(C)(=O)=O)C(N)=N3)c2)ncn1`: the IC50 is 9.5 nM.
On the same count and under the same terms, with `C[C@@]1(S(C)(=O)=O)CC[C@@](CF)(c2cc(NC(=O)c3cnc(OCF)cn3)ccc2F)N=C1N` the figure was 2 nM; with `C[C@@]1(S(C)(=O)=O)CC[C@@](CF)(c2cc(NC(=O)c3cc4c(cn3)OCCO4)ccc2F)N=C1N`, 2.3 nM.
The same measure, in the same setting: next, `C[C@@]1(S(C)(=O)=O)CC[C@@](CF)(c2cc(NC(=O)c3cc4c(cn3)OCCCO4)ccc2F)N=C1N`: 28 nM.

Another data set concerns the target T2, Beta-secretase 2 (Homo sapiens, UniProt Q9Y5Z0).
T2 sequence (Q9Y5Z0 whole entry): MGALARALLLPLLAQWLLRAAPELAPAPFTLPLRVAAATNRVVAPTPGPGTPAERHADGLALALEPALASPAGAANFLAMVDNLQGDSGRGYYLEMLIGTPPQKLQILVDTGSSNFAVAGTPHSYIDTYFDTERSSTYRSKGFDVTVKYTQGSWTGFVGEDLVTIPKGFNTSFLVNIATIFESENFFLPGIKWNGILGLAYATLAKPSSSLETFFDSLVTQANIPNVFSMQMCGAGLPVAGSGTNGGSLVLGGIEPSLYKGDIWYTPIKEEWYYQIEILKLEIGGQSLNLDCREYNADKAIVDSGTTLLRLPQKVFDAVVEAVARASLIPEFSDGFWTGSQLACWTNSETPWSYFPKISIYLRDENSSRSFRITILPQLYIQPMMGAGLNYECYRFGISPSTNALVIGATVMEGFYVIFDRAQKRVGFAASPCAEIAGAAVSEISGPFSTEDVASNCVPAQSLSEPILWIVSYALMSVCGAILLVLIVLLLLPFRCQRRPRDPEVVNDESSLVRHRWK
As to the kind of experiment: Inhibition of BACE2 (unknown origin) using APP harboring Swedish Lys-Met/Asn-Leu mutant-derived peptide as substrate incubated for 2 hrs by FRET assay.
Conditions: not given
The molecule `CCc1cc([C@]2(c3ccc(F)c(-c4cccnc4C(F)F)c3)N=C(N)N(C)C2=O)cc(CC)n1` showed an IC50 of 6700 nM.
The same measure, in the same setting: next, `CC(C)S(=O)(=O)[C@]1(C)CC[C@@](CF)(c2cc(NC(=O)c3cc4c(cn3)OC(F)(F)O4)ccc2F)N=C1N`: 468 nM.
The same measure, in the same setting: with `C[C@@]1(S(C)(=O)=O)CC[C@@](CF)(c2cc(NC(=O)c3ccc(F)cn3)ccc2F)N=C1N` the figure was 3.1 nM; with `C[C@@]1(S(C)(=O)=O)CC[C@@](CF)(c2cc(NC(=O)c3cc4c(cn3)OCO4)ccc2F)N=C1N`, 47 nM.
In turn, `COc1cc(C(=O)Nc2ccc(F)c([C@]3(CF)CC[C@@](C)(S(C)(=O)=O)C(N)=N3)c2)ncn1` gave an IC50 of 189 nM.
Molecule `C[C@@]1(S(C)(=O)=O)CC[C@@](CF)(c2cc(NC(=O)c3cnc(OCF)cn3)ccc2F)N=C1N` came in with an IC50 of 16 nM.
The same measure, in the same setting: next, `C[C@@]1(S(C)(=O)=O)CC[C@@](CF)(c2cc(NC(=O)c3cc4c(cn3)OCCO4)ccc2F)N=C1N`: 340 nM; `C[C@@]1(S(C)(=O)=O)CC[C@@](CF)(c2cc(NC(=O)c3cc4c(cn3)OCCCO4)ccc2F)N=C1N`: 1150 nM.

The target of a further data set is T1, Beta-secretase 1. As to the kind of experiment: Inhibition of BACE1 in human […] cells expressing wild type APP695 assessed as reduction in amyloid beta 42 secretion incubated for 18 hrs by sandwich ELISA. Type of data set: cell-based, SKNBE2.
Conditions: not given
On to `CC(C)S(=O)(=O)[C@]1(C)CC[C@@](CF)(c2cc(NC(=O)c3cc4c(cn3)OC(F)(F)O4)ccc2F)N=C1N`, for which the IC50 is 6.8 nM.
`C[C@@]1(S(C)(=O)=O)CC[C@@](CF)(c2cc(NC(=O)c3ccc(F)cn3)ccc2F)N=C1N`: the IC50 was 3.3 nM.
In the case of `C[C@@]1(S(C)(=O)=O)CC[C@@](CF)(c2cc(NC(=O)c3cc4c(cn3)OCO4)ccc2F)N=C1N`, the IC50 is 11 nM.
For the molecule `COc1cc(C(=O)Nc2ccc(F)c([C@]3(CF)CC[C@@](C)(S(C)(=O)=O)C(N)=N3)c2)ncn1`, the IC50 was found to be 15 nM.
Still for that read-out and setting: next, `C[C@@]1(S(C)(=O)=O)CC[C@@](CF)(c2cc(NC(=O)c3cnc(OCF)cn3)ccc2F)N=C1N`: 2.3 nM.
Same read-out and setting: with `C[C@@]1(S(C)(=O)=O)CC[C@@](CF)(c2cc(NC(=O)c3cc4c(cn3)OCCO4)ccc2F)N=C1N` the figure was 3 nM.
Regarding `C[C@@]1(S(C)(=O)=O)CC[C@@](CF)(c2cc(NC(=O)c3cc4c(cn3)OCCCO4)ccc2F)N=C1N`, the IC50 worked out at 76 nM.

Tested on in another data set: not listed separately
As to the kind of experiment: Metabolic stability in human liver microsomes assessed as intrinsic clearance. Type of data set: ADME, Microsome. Particulars: read-out: CLH. (Liver microsomes are a subcellular fraction often used to study metabolism.)
In the case of `C[C@@]1(S(C)(=O)=O)CC[C@@](CF)(c2cc(NC(=O)c3cc4c(cn3)OC(F)(F)CO4)ccc2F)N=C1N`, the microsomal CLint was under 7.7 µL/min/mg.
As to `CC(C)S(=O)(=O)[C@]1(C)CC[C@@](CF)(c2cc(NC(=O)c3cc4c(cn3)OC(F)(F)O4)ccc2F)N=C1N`, the microsomal CLint was under 7.7 µL/min/mg.
The same measure, in the same setting: with `C[C@@]1(S(C)(=O)=O)CC[C@@](CF)(c2cc(NC(=O)c3ccc(F)cn3)ccc2F)N=C1N` the figure was under 7.7 µL/min/mg; with `C[C@@]1(S(C)(=O)=O)CC[C@@](CF)(c2cc(NC(=O)c3cc4c(cn3)OC(F)(F)O4)ccc2F)N=C1N`, under 7.7 µL/min/mg.
The same measure, in the same setting: with `C[C@@]1(S(C)(=O)=O)CC[C@@](CF)(c2cc(NC(=O)c3cc4c(cn3)OCO4)ccc2F)N=C1N` the figure was 36.4 µL/min/mg; with `COc1cc(C(=O)Nc2ccc(F)c([C@]3(CF)CC[C@@](C)(S(C)(=O)=O)C(N)=N3)c2)ncn1`, under 7.7 µL/min/mg; with `C[C@@]1(S(C)(=O)=O)CC[C@@](CF)(c2cc(NC(=O)c3cc4c(cn3)OCCO4)ccc2F)N=C1N`, 11.3 µL/min/mg.
Still for that read-out and setting: next, `C[C@@]1(S(C)(=O)=O)CC[C@@](CF)(c2cc(NC(=O)c3cc4c(cn3)OCCCO4)ccc2F)N=C1N`: 16.7 µL/min/mg; `[2H]C1([2H])Oc2cnc(C(=O)Nc3ccc(F)c([C@]4(CF)CC[C@@](C)(S(C)(=O)=O)C(N)=N4)c3)cc2OC1([2H])[2H]`: 7.9 µL/min/mg.

Tested on in another data set: not listed separately
As to the kind of experiment: Glutathione reactivity in human liver microsomes. Type of data set: ADME.
Conditions: not given
Regarding `C[C@@]1(S(C)(=O)=O)CC[C@@](CF)(c2cc(NC(=O)c3cc4c(cn3)OC(F)(F)CO4)ccc2F)N=C1N`, the Activity entry is on record as “Not Active”.
On the same count and under the same terms, next, `C[C@@]1(S(C)(=O)=O)CC[C@@](CF)(c2cc(NC(=O)c3cc4c(cn3)OC(F)(F)O4)ccc2F)N=C1N`: “Not Active”; `C[C@@]1(S(C)(=O)=O)CC[C@@](CF)(c2cc(NC(=O)c3cc4c(cn3)OCCO4)ccc2F)N=C1N`: “Not Active”.
The same measure, in the same setting: with `[2H]C1([2H])Oc2cnc(C(=O)Nc3ccc(F)c([C@]4(CF)CC[C@@](C)(S(C)(=O)=O)C(N)=N4)c3)cc2OC1([2H])[2H]` the entry was “Not Active”.

Tested on in another data set: not listed separately
As to the kind of experiment: Cyanide reactivity in human liver microsomes. Type of data set: ADME.
Conditions: not given
As for `C[C@@]1(S(C)(=O)=O)CC[C@@](CF)(c2cc(NC(=O)c3cc4c(cn3)OC(F)(F)CO4)ccc2F)N=C1N`, the outcome was Active.
For the molecule `C[C@@]1(S(C)(=O)=O)CC[C@@](CF)(c2cc(NC(=O)c3cc4c(cn3)OC(F)(F)O4)ccc2F)N=C1N`, the result was Active.
On the same count and under the same terms, next, `C[C@@]1(S(C)(=O)=O)CC[C@@](CF)(c2cc(NC(=O)c3cc4c(cn3)OCCO4)ccc2F)N=C1N`: “Active”.
Same read-out and setting: with `[2H]C1([2H])Oc2cnc(C(=O)Nc3ccc(F)c([C@]4(CF)CC[C@@](C)(S(C)(=O)=O)C(N)=N4)c3)cc2OC1([2H])[2H]` the entry was “Active”.

The test system of the next data set is Mus musculus. The data set is described as follows: In vivo inhibition of BACE1 in C57BL/6J mouse assessed as reduction in plasma SEZ6L level at 3.5 to 52 mg/kg,/day administered via diet for 21 days. Type of data set: functional, organism-based. Particulars: dose 3.5-52 mg/kg, time 21.0 day.
As to `C[C@@]1(c2cc(NC(=O)c3ccc(C#N)cn3)ccc2F)C[C@@H](C(F)(F)F)OC(N)=N1`, the inhibition result is “Active”.

The next data set is filed under the species Homo sapiens. As to the kind of experiment: Selectivity index, ratio of IC50 for inhibition of BACE2 (unknown origin) to IC50 for inhibition of BACE1 (1 to 454 residues) (unknown origin).
Conditions: not given
For the molecule `C[C@@]1(S(C)(=O)=O)CC[C@@](CF)(c2cc(NC(=O)c3cc4c(cn3)OC(F)(F)CO4)ccc2F)N=C1N`, the Ratio IC50 amounted to 48.
Turning to `CC(C)S(=O)(=O)[C@]1(C)CC[C@@](CF)(c2cc(NC(=O)c3cc4c(cn3)OC(F)(F)O4)ccc2F)N=C1N`, the Ratio IC50 worked out at 46.
On the same count and under the same terms, next, `C[C@@]1(S(C)(=O)=O)CC[C@@](CF)(c2cc(NC(=O)c3cc4c(cn3)OC(F)(F)O4)ccc2F)N=C1N`: 38.
For the molecule `COc1cc(C(=O)Nc2ccc(F)c([C@]3(CF)CC[C@@](C)(S(C)(=O)=O)C(N)=N3)c2)ncn1`, the Ratio IC50 came out at 19.
Turning to `C[C@@]1(S(C)(=O)=O)CC[C@@](CF)(c2cc(NC(=O)c3cc4c(cn3)OCCO4)ccc2F)N=C1N`, the Ratio IC50 turned out to be 145.
Same read-out and setting: with `C[C@@]1(S(C)(=O)=O)CC[C@@](CF)(c2cc(NC(=O)c3cc4c(cn3)OCCCO4)ccc2F)N=C1N` the figure was 41.

Staying with this data set, now noted: tested as the 2H-labelled form.
Consider `C[C@@]1(S(C)(=O)=O)CC[C@@](CF)(c2cc(NC(=O)c3cc4c(cn3)OCCO4)ccc2F)N=C1N`, for which the Ratio IC50 is 102.
